Test results from patent US11208387B2, “Macrocyclic broad spectrum antibiotics” (Genentech, Inc., priority 2019, dated 2021).
≈ marks a conversion by molar mass, not a printed value. Like-named read-outs stand apart in the source and are kept apart here.

Tests used:
Test in all cases: Serum MIC, broth micro-dilution
Format in all cases: cell-based
[1] = tested on: Acinetobacter baumannii ATCC 17978; settings: Acinetobacter baumannii
How it was run: (§1)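 Serum-shifted MIC: medium is a 1:1 v/v mix of cation-adjusted MH II broth and mouse serum. 10-point 2-fold dilution series, top 64, 4, 0.5 or 0.13 μg/mL depending on protocol. Inoculum OD600 0.0005 final; 35° C, 22 h.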

[2] = tested on: Klebsiella pneumoniae ATCC 700603; settings: Klebsiella pneumoniae
How it was run: as §1

[3] = tested on: Pseudomonas aeruginosa PA01; settings: Pseudomonas aeruginosa, read-out: P. aeruginosa 01 Serum MIC
How it was run: as §1

[4] = tested on: Escherichia coli strain ATCC 25922; settings: Escherichia coli, read-out: E. coli 25922 Serum MIC
How it was run: as §1

[5] = ATCC17978, 50% v/v mouse serum in Mueller Hinton II cation adjusted Broth, 35° C., 22 hours, Table 4, read-out: A. baumanii 17978 Serum MIC
[6] = ATCC17978, 50% v/v mouse serum in Mueller Hinton II cation adjusted Broth, 35° C., 22 hours, Table 5, read-out: Acinetobacter baumanii 17978 Serum MIC
[7] = ATCC700603, 50% v/v mouse serum in Mueller Hinton II cation adjusted Broth, 35° C., 22 hours, Table 4, read-out: K pneumoniae 700603 Serum MIC
[8] = PA01, 50% v/v mouse serum in Mueller Hinton II cation adjusted Broth, 35° C., 22 hours, Table 4
[9] = ATCC25922, 50% v/v mouse serum in Mueller Hinton II cation adjusted Broth, 35° C., 22 hours, Table 4
[10] = ATCC17978, 50% v/v mouse serum, compounds of Table 1, Table 7, read-out: A. baumanii 17978 Serum MIC
[11] = ATCC700603, 50% v/v mouse serum, compounds of Table 1, Table 7, read-out: K. pneumoniae 700603 Serum MIC
[12] = PA01, 50% v/v mouse serum, compounds of Table 1, Table 7
[13] = ATCC25922, 50% v/v mouse serum, compounds of Table 1, Table 7

| SMILES | MIC [1, 5] | MIC [1, 6] | MIC [2, 7] | MIC [3, 8] | MIC [4, 9] | further results |
| --- | --- | --- | --- | --- | --- | --- |
| C[C@@H]1NC(=O)[C@@H](N(C)C(=O)[C@H](CCN)NC(=O)c2cnn(-c3ccc(OCCC(C)(C)C)cc3)c(=O)c2)c2cc(OC[C@H](O)CN)c(O)c(c2)-c2cc(ccc2OC[C@H](O)CN)C[C@@H](C(=O)O)NC1=O [Example 22, (8S,11S,14S)-18-hydroxy-11-methyl-14-[methyl-[(2S)-4-amino-2-[[1-[4-(3,3-dimethylbutoxy)-phenyl]-6-oxo-pyridazine-4-carbonyl]amino]-butanoyl]amino]-10,13-dioxo-3,17-bis[(2R)-3-amino-2-hydroxy-propoxy]-9,12-diazatricyclo-[13.3.1.12,6]icosa-1(18),2(20),3,5,15(19), 16-hexaene-8-carboxylic acid] | 32 µM (≈ 31.2 µg/mL) | 32 µM (≈ 31.2 µg/mL) | 0.5 µM (≈ 0.487 µg/mL) | 32 µM (≈ 31.2 µg/mL) | 1 µM (≈ 0.974 µg/mL) | – |
| Cc1nc(-c2ccc(OC(C)C)cc2)ncc1C(=O)N[C@@H](CNS(N)(=O)=O)C(=O)N(C)[C@@H]1C(=O)N[C@@H](C)C(=O)N[C@H](C(=O)O)Cc2ccc(OC[C@H](O)CN)c(c2)-c2cc1cc(OC[C@H](O)CN)c2O [Example 14, (8S,11S,14S)-18-hydroxy-11-methyl-14-[methyl-[(2S)-2-[[2-(4-isopropoxy-phenyl)-4-methyl-pyrimidine-5-carbonyl]amino]-3-(sulfamoylamino)-propanoyl]amino]-10,13-dioxo-3,17-bis[(2R)-3-amino-2-hydroxy-propoxy]-9,12-diazatricyclo-[13.3.1.12,6]icosa-1(18),2(20),3,5,15(19), 16-hexaene-8-carboxylic acid] | – | – | – | – | – | MIC ([1]; ATCC17978, 22 h, read-out: A. baumanii 17978 Serum MIC): 32 µM (≈ 31.8 µg/mL); MIC ([1]; ATCC17978, 22 h, read-out: Acinetobacter baumanii 17978 Serum MIC): 32 µM (≈ 31.8 µg/mL); MIC ([2]; ATCC700603, 22 h, read-out: K pneumoniae 700603 Serum MIC): 2 µM (≈ 1.99 µg/mL); MIC ([3]; PA01, 22 h): 48 µM (≈ 47.8 µg/mL); MIC ([4]; ATCC25922, 22 h): 1.5 µM (≈ 1.49 µg/mL) |
| CCCCCOc1ccc(-c2nc(C)c(C(=O)N[C@@H](CCN)C(=O)N(C)[C@@H]3C(=O)N[C@@H](C)C(=O)N[C@H](C(=O)O)Cc4ccc(O)c(c4)-c4cc3ccc4OCCN)c(C)n2)cc1 (racemic) [Example 648] | – | – | – | – | – | MIC [1, 10]: > 96 µM; MIC [2, 11]: 1.3 µM (≈ 1.11 µg/mL); MIC [3, 12]: > 128 µM; MIC [4, 13]: 0.6 µM (≈ 0.512 µg/mL) |
| Cc1nc(-c2ccc(C(C)(C)C)cc2)nc(C)c1C(=O)N[C@@H](CCN)C(=O)N(C)[C@@H]1C(=O)N[C@@H](C)C(=O)N[C@H](C(=O)O)Cc2ccc(O)c(c2)-c2cc1ccc2OCCN (racemic) [Example 646] | – | – | – | – | – | MIC [1, 10]: 69 µM (≈ 56.8 µg/mL); MIC [2, 11]: 0.58 µM (≈ 0.477 µg/mL); MIC [3, 12]: 69 µM (≈ 56.8 µg/mL); MIC [4, 13]: 0.55 µM (≈ 0.453 µg/mL) |
| Cc1nc(-c2ccc(OCCC(C)(C)C)nc2)nc(N)c1C(=O)N[C@@H](CNS(N)(=O)=O)C(=O)N(C)[C@@H]1C(=O)N[C@@H](C)C(=O)N[C@H](C(=O)O)Cc2ccc(OC[C@H](O)CN)c(c2)-c2cc1cc(OC[C@H](O)CN)c2O [Example 54, (8S,11S,14S)-14-[[(2S)-2-[[4-amino-2-[6-(3,3-dimethyl-butoxy)-3-pyridyl]-6-methyl-pyrimidine-5-carbonyl]amino]-3-(sulfamoylamino)-propanoyl]-methyl-amino]-3,17-bis[(2R)-3-amino-2-hydroxy-propoxy]-18-hydroxy-11-methyl-10,13-dioxo-9,12-diazatri-cyclo[13.3.1.12,6]icosa-1(18),2(20),3,5,15(19), 16-hexaene-8-carboxylic acid] | 8 µM (≈ 8.43 µg/mL) | 8 µM (≈ 8.43 µg/mL) | 0.5 µM (≈ 0.527 µg/mL) | 4 µM (≈ 4.21 µg/mL) | 0.38 µM (≈ 0.4 µg/mL) | – |
| CCCCc1ccc(-c2nc(C)c(C(=O)N[C@@H](CNS(N)(=O)=O)C(=O)N(C)[C@@H]3C(=O)N[C@@H](C)C(=O)N[C@H](C(=O)O)Cc4ccc(OC[C@H](O)CN)c(c4)-c4cc3cc(OC[C@H](O)CN)c4O)c(N)n2)cc1 [Example 36, (8S,11S,14S)-14-[[(2S)-2-[[4-amino-2-(4-butylphenyl)-6-methyl-pyrimidine-5-carbonyl]amino]-3-(sulfamoylamino)-propanoyl]-methyl-amino]-3,17-bis[(2R)-3-amino-2-hydroxy-propoxy]-18-hydroxy-11-methyl-10,13-dioxo-9,12-diazatri-cyclo[13.3.1.12,6]icosa-1(18),2(20),3,5,15(19), 16-hexaene-8-carboxylic acid] | 16 µM (≈ 16.1 µg/mL) | 16 µM (≈ 16.1 µg/mL) | 1 µM (≈ 1.01 µg/mL) | 16 µM (≈ 16.1 µg/mL) | 0.75 µM (≈ 0.756 µg/mL) | – |
| Cc1c(C#N)c(-c2ccc(C(C)(C)C)cc2)nc(N)c1C(=O)N[C@@H](CNS(N)(=O)=O)C(=O)N(C)[C@@H]1C(=O)N[C@@H](C)C(=O)N[C@H](C(=O)O)Cc2ccc(OC[C@H](O)CN)c(c2)-c2cc1cc(OC[C@H](O)CN)c2O [Example 68, (8S,11S,14S)-14-[[(2S)-2-[[2-amino-6-(4-tert-butylphenyl)-5-cyano-4-methyl-pyridine-3-carbonyl]-amino]-3-(sulfamoyl-amino)propanoyl]-methyl-amino]-3,17-bis[(2R)-3-amino-2-hydroxy-propoxy]-18-hydroxy-11-methyl-10,13-dioxo-9,12-diazatricyclo-[13.3.1.12,6]icosa-1(19),2(20),3,5,15,17-hexaene-8-carboxylic acid] | 16 µM (≈ 16.5 µg/mL) | 16 µM (≈ 16.5 µg/mL) | 1 µM (≈ 1.03 µg/mL) | 6 µM (≈ 6.19 µg/mL) | 1.5 µM (≈ 1.55 µg/mL) | – |
| Cc1cc(C(C)(C)C)ccc1-c1nc(C)c(C(=O)N[C@@H](CNS(N)(=O)=O)C(=O)N(C)[C@@H]2C(=O)N[C@@H](C)C(=O)N[C@H](C(=O)O)Cc3ccc(OC[C@H](O)CN)c(c3)-c3cc2cc(OC[C@H](O)CN)c3O)c(N)n1 [Example 59, (8S,11S,14S)-14-[[(2S)-2-[[4-amino-2-(4-tert-butyl-2-methyl-phenyl)-6-methyl-pyrimidine-5-carbonyl]amino]-3-(sulfamoylamino)-propanoyl]-methyl-amino]-3,17-bis[(2R)-3-amino-2-hydroxy-propoxy]-18-hydroxy-11-methyl-10,13-dioxo-9,12-diazatricyclo-[13.3.1.12,6]icosa-1(18),2(20),3,5,15(19), 16-hexaene-8-carboxylic acid] | 16 µM (≈ 16.4 µg/mL) | 16 µM (≈ 16.4 µg/mL) | 1 µM (≈ 1.02 µg/mL) | 4 µM (≈ 4.09 µg/mL) | 1 µM (≈ 1.02 µg/mL) | – |
| Cc1nc(-c2ccc(C3(C)CC3)cc2)nc(N)c1C(=O)N[C@@H](CNS(N)(=O)=O)C(=O)N(C)[C@@H]1C(=O)N[C@@H](C)C(=O)N[C@H](C(=O)O)Cc2ccc(OC[C@H](O)CN)c(c2)-c2cc1cc(OC[C@H](O)CN)c2O [Example 6, (8S,11S,14S)-18-hydroxy-11-methyl-14-[methyl-[(2S)-2-[[4-amino-6-methyl-2-[4-(1-methylcyclo-propyl)phenyl]-pyrimidine-5-carbonyl]amino]-3-(sulfamoylamino)-propanoyl]amino]-10,13-dioxo-3,17-bis[(2R)-3-amino-2-hydroxy-propoxy]-9,12-diazatricyclo-[13.3.1.12,6]icosa-1(18),2(20),3,5,15(19), 16-hexaene-8-carboxylic acid] | 16 µM (≈ 16.1 µg/mL) | 16 µM (≈ 16.1 µg/mL) | 0.75 µM (≈ 0.755 µg/mL) | 16 µM (≈ 16.1 µg/mL) | 0.75 µM (≈ 0.755 µg/mL) | – |
| C[C@@H]1NC(=O)[C@@H](N(C)C(=O)[C@H](CNS(N)(=O)=O)NC(=O)c2c(Cl)cc(-c3ccc(C(C)(C)C)cc3)nc2N)c2cc(OC[C@H](O)CN)c(O)c(c2)-c2cc(ccc2OC[C@H](O)CN)C[C@@H](C(=O)O)NC1=O [Example 40, (8S,11S,14S)-14-[[(2S)-2-[[2-amino-6-(4-tert-butylphenyl)-4-chloro-pyridine-3-carbonyl]amino]-3-(sulfamoylamino)-propanoyl]-methyl-amino]-3,17-bis[(2R)-3-amino-2-hydroxy-propoxy]-18-hydroxy-11-methyl-10,13-dioxo-9,12-diazatri-cyclo[13.3.1.12,6]icosa-1(18),2(20),3,5,15(19), 16-hexaene-8-carboxylic acid] | 16 µM (≈ 16.4 µg/mL) | 16 µM (≈ 16.4 µg/mL) | 0.5 µM (≈ 0.514 µg/mL) | 8 µM (≈ 8.22 µg/mL) | 0.75 µM (≈ 0.771 µg/mL) | – |
| Cc1nc(-c2ccc(C(C)(C)C)c(F)c2O)nc(N)c1C(=O)N[C@@H](CNS(N)(=O)=O)C(=O)N(C)[C@@H]1C(=O)N[C@@H](C)C(=O)N[C@H](C(=O)O)Cc2ccc(OC[C@H](O)CN)c(c2)-c2cc1cc(OC[C@H](O)CN)c2O [Example 67, (8S,11S,14S)-18-hydroxy-11-methyl-14-[methyl-[(2S)-2-[[4-amino-2-(4-tert-butyl-3-fluoro-2-hydroxy-phenyl)-6-methyl-pyrimidine-5-carbonyl]amino]-3-(sulfamoylamino)-propanoyl]amino]-10,13-dioxo-3,17-bis[(2R)-3-amino-2-hydroxy-propoxy]-9,12-diazatricyclo-[13.3.1.12,6]icosa-1(18),2(20),3,5,15(19), 16-hexaene-8-carboxylic acid] | 16 µM (≈ 16.7 µg/mL) | 16 µM (≈ 16.7 µg/mL) | 1 µM (≈ 1.04 µg/mL) | 4 µM (≈ 4.17 µg/mL) | 0.5 µM (≈ 0.521 µg/mL) | – |
